Marks after values point to notes of the source that are not given here.
Settings: human, in vivo

Abdominal noises F (frequency of the symptoms): 1.8 ^b
Abdominal noises I (intensity of the symptoms): 1.6 ^ab
Abdominal pain F (frequency of the symptoms): 1.6 ^ab
Abdominal pain I (intensity of the symptoms): 1.5 ^ab
Bloating F (frequency of the symptoms): 1.6 ^ab
Bloating I (intensity of the symptoms): 1.7 ^b
Cumulative grade: 21.3 ^b
Flatulence F (frequency of the symptoms): 2.9 ^b
Flatulence I (intensity of the symptoms): 2.5 ^b
Nausea F (frequency of the symptoms): 1.2 ^a
Nausea I (intensity of the symptoms): 1.1 ^a
Need to defecate F (frequency of the symptoms): 2.1 ^a
Need to defecate I (intensity of the symptoms): 1.7 ^a
Substance: β-galacto-oligosaccharides [β-GOS]
